Assay results: US20200197355A1, “METHODS, COMPOSITIONS AND CONTAINERS FOR REDUCING SOLID FORM QUERCETIN DEGRADATION AND 2-(3,4-DIHYDROXYBENZOYLOXY)-4,6-DIHYDROXYBENZOIC ACID TOXIC BYPRODUCTS THEREOF” (PUBLIC JOINT STOCK COMPANY "SCIENTIFICINDUSTRIALCENTRE …, priority 2018, published 2020)
Converted amounts (≈) assume the structure as drawn.

Columns and labels:
[1] = Toxicity of DB-DBA, CellTiter 96 AQueous One Solution cell viability assay, 72 h; assay type: cell-based, human; conditions: human, MDA-MB231 breast cancer cells, 72 h
Procedure: (§1) Toxicity of DB-DBA (2-(3,4-dihydroxybenzoyloxy)-4,6-dihydroxybenzoic acid) was assessed in 96-well plates (Thermofisher, Walthman, Mass.) on 1×10^3 MDA-MB231 human breast cancer cells/well. DB-DBA was diluted to concentrations from 500 to 20 ug/ml. The plate was incubated at 37° C. for 72 h. Cell viability was measured in a CellTiter 96® AQueous One Solution Cell Proliferation Assay (Promega, Madison, Wis.), according to the manufacturer's protocol.

[2] = test system: MDA-MB231 human breast cancer cells; assay: as above; assay type: cell-based; conditions: Homo sapiens, MDA-MB-231; MDA-MB231, 72 h, 37° C.
Procedure: as §1

[3] = test system: human lymphoblastoid TK6 cells; conditions: cited from earlier work
[4] = test system: human lymphoblastoid cell line K562; conditions: cited from earlier work
[5] = test system: retinal pigmented epithelial cells (ARPE-19); conditions: cited from earlier work
[6] = test system: human lymphoblastoid TK6 cells; conditions: cited from earlier work; remark: listed apart in the source
[7] = humans, cited from earlier work

`O=C(Oc1cc(O)cc(O)c1C(=O)O)c1ccc(O)c(O)c1` [DB-DBA, 2-(3,4-dihydroxybenzoyloxy)-4,6-dihydroxybenzoic acid] showed a viability at 72 h, 20 microgram/ml ([1]; DB-DBA 20 microgram/ml) of 95%, a viability at 72 h, 50 microgram/ml ([1]; DB-DBA 50 microgram/ml) of 62% and a viability at 72 h, 100 microgram/ml ([1]; DB-DBA 100 microgram/ml) of 41%. The viability at 72 h, 250 microgram/ml ([1]; DB-DBA 250 microgram/ml) was 19%, the viability at 72 h, 500 microgram/ml ([1]; DB-DBA 500 microgram/ml) was 10% and the IC50 [2] was 75 µg/mL (≈ 245 µM).

For `O=C(O)c1cc(O)c(O)c(OC(=O)c2cc(O)c(O)c(O)c2)c1` [DGA, Digallic acid], the “concentrations causing DNA fragmentation, caspase-3/8 activation and PARP cleavage” value [3] is given as 2.5-10 microgram/ml, the “concentrations causing DNA fragmentation” value [4] is given as 200-800 microgram/ml and the “IC50 (cytotoxicity)” value [5] is given as 47 microgram/ml. For the same compound, the “IC50 by MTT assay” value [6] was 8.5 microgram/ml.

For `O=c1c(O)c(-c2ccc(O)c(O)c2)oc2cc(O)cc(O)c12` [quercetin, 2-(3,4-dihydroxyphenyl)-3,5,7-trihydroxy-4H-chromen-4-one], the elimination half-life ([7]; after ingestion in foods or supplements) is listed as 1 to 2 h and the bioavailability [7] is listed as 0-50%.
